Experimental data published in patent publication US9902702B2, “Spirocycloheptanes as inhibitors of rock” (BRISTOL-MYERS SQUIBB COMPANY, priority 2014, dated 2018).
pIC50: −log10 of the molar value. Counter-ions that a name gives are not always drawn.

Each compound was assayed against ROCK2 (Homo sapiens, UniProt O75116) (assay: ROCK assay: phosphorylation of FITC peptide substrate, LABCHIP 3000 mobility shift). Conditions: 5 μM ATP, 1.5 μM peptide substrate; read-out: ROCK2 Activity (ROCK IC50 range).
Format: biochemical
How it was run: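 IC50 values come from curve-fitting percent kinase inhibition across a compound dilution series. The reaction is started with Rho kinase variant in HEPES pH 7.5 buffer with MgCl2, Brij-35 and DTT, with 5 μM ATP, 1.5 μM FITC-labelled peptide and under 2% DMSO. After EDTA quench, product and substrate are separated by microfluidic mobility shift.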

Sequence of ROCK2 (O75116 whole entry, species assumed): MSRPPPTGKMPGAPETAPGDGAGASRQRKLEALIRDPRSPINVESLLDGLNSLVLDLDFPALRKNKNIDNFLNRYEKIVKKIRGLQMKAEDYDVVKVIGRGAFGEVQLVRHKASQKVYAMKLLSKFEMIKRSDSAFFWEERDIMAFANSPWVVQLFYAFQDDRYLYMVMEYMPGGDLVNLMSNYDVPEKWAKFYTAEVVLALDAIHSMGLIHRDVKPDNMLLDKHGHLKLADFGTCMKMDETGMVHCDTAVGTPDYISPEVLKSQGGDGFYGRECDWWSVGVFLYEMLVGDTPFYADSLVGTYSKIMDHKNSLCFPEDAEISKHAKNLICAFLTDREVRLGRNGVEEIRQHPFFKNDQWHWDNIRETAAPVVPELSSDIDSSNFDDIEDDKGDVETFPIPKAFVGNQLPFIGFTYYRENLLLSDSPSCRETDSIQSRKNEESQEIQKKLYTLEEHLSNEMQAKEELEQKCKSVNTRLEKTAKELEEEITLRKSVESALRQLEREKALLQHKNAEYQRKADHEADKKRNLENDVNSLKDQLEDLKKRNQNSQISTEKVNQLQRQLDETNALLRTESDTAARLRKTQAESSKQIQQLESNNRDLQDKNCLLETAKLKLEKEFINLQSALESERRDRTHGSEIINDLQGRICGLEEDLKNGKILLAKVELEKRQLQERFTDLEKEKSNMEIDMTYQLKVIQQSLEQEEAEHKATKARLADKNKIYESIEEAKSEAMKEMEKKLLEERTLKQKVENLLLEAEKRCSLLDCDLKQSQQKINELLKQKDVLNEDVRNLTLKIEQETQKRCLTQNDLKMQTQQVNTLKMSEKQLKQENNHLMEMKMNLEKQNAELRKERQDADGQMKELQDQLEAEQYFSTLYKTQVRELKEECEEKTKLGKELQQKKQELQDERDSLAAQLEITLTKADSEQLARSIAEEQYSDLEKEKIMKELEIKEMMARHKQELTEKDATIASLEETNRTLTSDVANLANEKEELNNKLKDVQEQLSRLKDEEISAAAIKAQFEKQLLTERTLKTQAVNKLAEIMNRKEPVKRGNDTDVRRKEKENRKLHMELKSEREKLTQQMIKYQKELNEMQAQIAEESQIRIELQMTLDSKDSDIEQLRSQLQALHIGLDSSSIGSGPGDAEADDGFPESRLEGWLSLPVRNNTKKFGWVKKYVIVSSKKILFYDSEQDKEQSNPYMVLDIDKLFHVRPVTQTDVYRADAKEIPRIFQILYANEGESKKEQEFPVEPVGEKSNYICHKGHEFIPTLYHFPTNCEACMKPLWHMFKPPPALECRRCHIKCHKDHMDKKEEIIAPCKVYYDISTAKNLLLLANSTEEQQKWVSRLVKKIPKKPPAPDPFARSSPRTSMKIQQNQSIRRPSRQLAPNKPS

pIC50	SMILES
8.30 to 8.70	[H][C@]1(c2n[nH]c(=O)c3ccccc32)C[C@]2(C[C@@H](NC(=O)c3ccc(-c4cnc(C)s4)c(OC)c3)C2)C1 (stereo partly drawn) [Example 350, 3-methoxy-4-(2-methylthiazol-5-yl)-N-((aR)-6-(4-oxo-3,4-dihydrophthalazin-1-yl)spiro[3.3]heptan-2-yl)benzamide]
5.68 to 7.00	O=C(NC1CC2(C1)CC(c1n[nH]c(=O)c3ccccc13)C2)c1cnn2cccnc12 [Example 282, N-((aR)-6-(4-oxo-3,4-dihydrophthalazin-1-yl)spiro[3.3]heptan-2-yl)pyrazolo[1,5-a]pyrimidine-3-carboxamide]
8.30 to 8.70	CC(C)(O)COc1ccc2c(C(=O)NC3CC4(C3)CC(c3c[nH]c(=O)c5ccccc35)C4)cnn2c1 (centres unmarked) [Example 271, 6-(2-hydroxy-2-methylpropoxy)-N-(6-(1-oxo-1,2-dihydroisoquinolin-4-yl)spiro[3.3]heptan-2-yl)pyrazolo[1,5-a]pyridine-3-carboxamide]
7.00 to 7.82	[H][C@]1(c2n[nH]c(=O)c3ccccc32)C[C@]2(C[C@@H](NC(=O)c3cnc4cc(C(C)(C)O)ccn34)C2)C1 (stereo partly drawn) [Example 429, 7-(2-hydroxypropan-2-yl)-N-((aR)-6-(4-oxo-3,4-dihydrophthalazin-1-yl)spiro[3.3]heptan-2-yl)imidazo[1,2-a]pyridine-3-carboxamide]
7.82 to 8.29	[H][C@]1(c2n[nH]c(=O)c3ccccc32)C[C@]2(C[C@@H](NC(=O)c3cc4cccc(-c5cnn(C)c5)c4[nH]3)C2)C1 (stereo partly drawn) [Example 420, 7-(1-methyl-1H-pyrazol-4-yl)-N-((aR)-6-(4-oxo-3,4-dihydrophthalazin-1-yl)spiro[3.3]heptan-2-yl)-1H-indole-2-carboxamide]
5.68 to 7.00	[H][C@]1(c2n[nH]c(=O)c3ccccc32)C[C@]2(C[C@@H](NC(=O)C3CCc4ccccc43)C2)C1 (stereo partly drawn) [Example 321, N-((aR)-6-(4-oxo-3,4-dihydrophthalazin-1-yl)spiro[3.3]heptan-2-yl)-2,3-dihydro-1H-indene-1-carboxamide]
7.82 to 8.29	[H][C@]1(c2n[nH]c(=O)c3ccccc32)C[C@]2(C[C@@H](NC(=O)c3c[nH]c4ccccc34)C2)C1 (stereo partly drawn) [Example 300, N-((aR)-6-(4-oxo-3,4-dihydrophthalazin-1-yl)spiro[3.3]heptan-2-yl)-1H-indole-3-carboxamide]
7.82 to 8.29	[H][C@]1(c2n[nH]c(=O)c3ccccc32)C[C@]2(C[C@@H](NC(=O)c3ccc4c(ccn4C)c3)C2)C1 (stereo partly drawn) [Example 368, 1-methyl-N-((aR)-6-(4-oxo-3,4-dihydrophthalazin-1-yl)spiro[3.3]heptan-2-yl)-1H-indole-5-carboxamide]
8.30 to 8.70	Cn1cc(-c2ccc3c(c2)CCN3C(=O)NC2CC3(C2)CC(c2n[nH]c(=O)c4ccccc24)C3)c(C(F)(F)F)n1 [Example 238, 5-(1-methyl-3-(trifluoromethyl)-1H-pyrazol-4-yl)-N-((aR)-6-(4-oxo-3,4-dihydrophthalazin-1-yl)spiro[3.3]heptan-2-yl)indoline-1-carboxamide]
7.00 to 7.82	O=C(NC1CC2(C1)CC(c1n[nH]c(=O)c3ccccc13)C2)N1Cc2cccnc2C1 (centres unmarked) [Example 257]
7.82 to 8.29	CC(C)(O)Cn1nc(C(=O)NC2CC3(C2)CC(c2n[nH]c(=O)c4ccccc24)C3)c2ccc(-c3ccc(Cl)cc3)cc21 (centres unmarked) [Example 144, 6-(4-chlorophenyl)-1-(2-hydroxy-2-methylpropyl)-N-((αR)-6-(4-oxo-3,4-dihydrophthalazin-1-yl)spiro[3.3]heptan-2-yl)-1H-indazole-3-carboxamide]
7.82 to 8.29	CC(=O)Nc1ccc2c(C(=O)NC3CC4(C3)CC(c3n[nH]c(=O)c5ccccc35)C4)noc2c1 [Example 291, 6-acetamido-N-((aR)-6-(4-oxo-3,4-dihydrophthalazin-1-yl)spiro[3.3]heptan-2-yl)benzo[d]isoxazole-3-carboxamide]
8.30 to 8.70	[H][C@]1(c2n[nH]c(=O)c3ccccc32)C[C@]2(C[C@@H](NC(=O)c3ccc(-c4cnn(C(C)C)c4)c(F)c3)C2)C1 (stereo partly drawn) [Example 446, 3-fluoro-4-(1-isopropyl-1H-pyrazol-4-yl)-N-((aR)-6-(4-oxo-3,4-dihydrophthalazin-1-yl)spiro[3.3]heptan-2-yl)benzamide]
8.70 to 9.70	O=C(NC1CC2(C1)CC(c1n[nH]c(=O)c3ccccc13)C2)c1cnn2cc(-c3cnn(C4CC4)c3)ccc12 [Example 217, 6-(1-cyclopropyl-1H-pyrazol-4-yl)-N-((aR)-6-(4-oxo-3,4-dihydrophthalazin-1-yl)spiro[3.3]heptan-2-yl)pyrazolo[1,5-a]pyridine-3-carboxamide]
8.30 to 8.70	O=C(NC1CC2(C1)CC(c1n[nH]c(=O)c3ccccc13)C2)c1cnn2ccc(OCCN3CCOCC3)cc12 [Example 73, 5-(2-morpholinoethoxy)-N-((aR)-6-(4-oxo-3,4-dihydrophthalazin-1-yl)spiro[3.3]heptan-2-yl)pyrazolo[1,5-a]pyridine-3-carboxamide]
7.82 to 8.29	COC(=O)N1CCc2c(C(=O)N[C@H]3CC4(C3)C[C@H](c3n[nH]c(=O)c5ccccc53)C4)csc2C1 (stereo partly drawn) [Example 275, methyl 3-(((aR)-6-(4-oxo-3,4-dihydrophthalazin-1-yl)spiro[3.3]heptan-2-yl)carbamoyl)-4,5-dihydrothieno[2,3-c]pyridine-6(7H)-carboxylate]
8.30 to 8.70	O=C(NC1CC2(C1)CC(c1n[nH]c(=O)c3ccccc13)C2)c1cnn2cc(OCC(O)(C(F)(F)F)C(F)(F)F)ccc12 [Example 98, N-((aR)-6-(4-oxo-3,4-dihydrophthalazin-1-yl)spiro[3.3]heptan-2-yl)-6-(3,3,3-trifluoro-2-hydroxy-2-(trifluoromethyl)propoxy)pyrazolo[1,5-a]pyridine-3-carboxamide]
7.82 to 8.29	CCc1nn2cc(C(=O)NC3CC4(C3)CC(c3n[nH]c(=O)c5ccccc35)C4)nc2s1 [Example 95, 2-ethyl-N-((aR)-6-(4-oxo-3,4-dihydrophthalazin-1-yl)spiro[3.3]heptan-2-yl)imidazo[2,1-b][1,3,4]thiadiazole-6-carboxamide]
7.82 to 8.29	COc1ccc2c(c1)CN(C(=O)NC1CC3(C1)CC(c1n[nH]c(=O)c4ccccc14)C3)C2 [Example 263, 5-methoxy-N-((aR)-6-(4-oxo-3,4-dihydrophthalazin-1-yl)spiro[3.3]heptan-2-yl)isoindoline-2-carboxamide]
8.70 to 9.70	CCn1cc(-c2ccn3c(C(=O)N[C@H]4CC5(C4)C[C@H](c4n[nH]c(=O)c6ccccc64)C5)cnc3c2)cn1 (stereo partly drawn) [Example 439, 7-(1-ethyl-1H-pyrazol-4-yl)-N-((aR)-6-(4-oxo-3,4-dihydrophthalazin-1-yl)spiro[3.3]heptan-2-yl)imidazo[1,2-a]pyridine-3-carboxamide, TFA salt]
8.70 to 9.70	[H][C@]1(c2n[nH]c(=O)c3ccccc32)C[C@]2(C[C@@H](NC(=O)c3cnc4cc(OCC(F)F)ccn34)C2)C1 (stereo partly drawn) [Example 436, 7-(2,2-difluoroethoxy)-N-((aR)-6-(4-oxo-3,4-dihydrophthalazin-1-yl)spiro[3.3]heptan-2-yl)imidazo[1,2-a]pyridine-3-carboxamide]
5.68 to 7.00	[H][C@]1(c2n[nH]c(=O)c3ccccc32)C[C@]2(C[C@@H](NC(=O)c3cnc(O)c(Cl)c3)C2)C1 (stereo partly drawn) [Example 347, 5-chloro-6-hydroxy-N-((aR)-6-(4-oxo-3,4-dihydrophthalazin-1-yl)spiro[3.3]heptan-2-yl)nicotinamide]
7.82 to 8.29	CC(C)(O)Cn1nc(C(=O)NC2CC3(C2)CC(c2n[nH]c(=O)c4ccccc24)C3)c2ccc(-c3cccc(Cl)c3)cc21 (centres unmarked) [Example 156, 6-(3-chlorophenyl)-1-(2-hydroxy-2-methylpropyl)-N-((αR)-6-(4-oxo-3,4-dihydrophthalazin-1-yl)spiro[3.3]heptan-2-yl)-1H-indazole-3-carboxamide]
8.30 to 8.70	CC(C)(O)Cn1nc(C(=O)N[C@H]2CC3(C2)C[C@H](c2n[nH]c(=O)c4ccccc42)C3)c2ccc(Br)cc21 (some centres unmarked) [Example 152, 6-bromo-1-(2-hydroxy-2-methylpropyl)-N-((αR)-6-(4-oxo-3,4-dihydrophthalazin-1-yl)spiro[3.3]heptan-2-yl)-1H-indazole-3-carboxamide]
8.70 to 9.70	[H][C@]1(c2n[nH]c(=O)c3ccccc32)C[C@]2(C[C@@H](NC(=O)c3cnc4cc(N5CCC(F)(F)C5)ccn34)C2)C1 (stereo partly drawn) [Example 392, 7-(3,3-difluoropyrrolidin-1-yl)-N-((aR)-6-(4-oxo-3,4-dihydrophthalazin-1-yl)spiro[3.3]heptan-2-yl)imidazo[1,2-a]pyridine-3 carboxamide]
8.30 to 8.70	[H][C@]1(c2n[nH]c(=O)c3ccccc32)C[C@]2(C[C@@H](NC(=O)c3cnc4cc(C(F)(F)F)ccn34)C2)C1 (stereo partly drawn) [Example 403, N-((aR)-6-(4-oxo-3,4-dihydrophthalazin-1-yl)spiro[3.3]heptan-2-yl)-7-(trifluoromethyl)imidazo[1,2-a]pyridine-3-carboxamide]
5.68 to 7.00	Cc1ccc(-c2ncc3c(n2)CN(C(=O)NC2CC4(C2)CC(c2n[nH]c(=O)c5ccccc25)C4)C3)cc1 [Example 262, N-((aR)-6-(4-oxo-3,4-dihydrophthalazin-1-yl)spiro[3.3]heptan-2-yl)-2-(p-tolyl)-5H-pyrrolo[3,4-d]pyrimidine-6(7H)-carboxamide]
7.00 to 7.82	O=C(NC1CC2(C1)CC(c1n[nH]c(=O)c3ccccc13)C2)N1CCc2cccnc21 [Example 256, N-((aR)-6-(4-oxo-3,4-dihydrophthalazin-1-yl)spiro[3.3]heptan-2-yl)-2,3-dihydro-1H-pyrrolo[2,3-b]pyridine-1-carboxamide]
8.70 to 9.70	[H][C@]1(c2n[nH]c(=O)c3ccccc32)C[C@]2(C[C@@H](NC(=O)c3cnc4cc(OCc5ccccc5)ccn34)C2)C1 (stereo partly drawn) [Example 384, 7-(benzyloxy)-N-((aR)-6-(4-oxo-3,4-dihydrophthalazin-1-yl)spiro[3.3]heptan-2-yl)imidazo[1,2-a]pyridine-3-carboxamide]
